Source: ChEMBL document CHEMBL1201862, “PubChem BioAssay data set” (2004)
Active and inactive are the calls of the source.

Tests used:
[1] = ADAM10 protease inhibitors, dose response, selectivity assay for ADAM17 exosite inhibitor project, biochemical, FRET peptide substrate, recombinant human ADAM10 (AID 743259);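 also: ADAM10 enzyme cleaving a FRET peptide substrate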
[2] = molecular target: Disintegrin and metalloproteinase domain-containing protein 17 (Homo sapiens, UniProt P78536); test: exosite inhibitors of ADAM17, dose response, biochemical (AID 743260)
[3] = molecular target: Beta-galactosidase (Escherichia coli, UniProt Q8VNN2); test: Dose response counterscreen for EBI2 assay utilizing the enzyme, b-galactosidase.; assay type: functional
[4] = A Cell Based Secondary Assay to Explore Cytotoxicity in THP-1 Cells of Compounds that Modulate Mycobacterium tuberculosis in Media Containing Glycerol versus Media without Glycerol (2).; assay type: functional
[5] = Vero cell cytotoxicity, cytotoxicity control for M. tuberculosis inhibitor project, purified and synthesized samples, set 3 (AID 504684); assay type: functional
[6] = Counterscreen for […] of the human trace amine associated receptor 1 (TAAR1): Fluorescence-based cell-based high throughput dose response assay to identify nonselective Ga16 agonists.; assay type: functional
[7] = molecular target: T1, Trace amine-associated receptor 1 (Homo sapiens, UniProt Q96RJ0); test: Counterscreen for antagonists of the human trace amine associated receptor 1 (hTAAR1): Fluorescence-based cell-based high throughput dose response assay to identify TAAR1 Agonists.; assay type: functional
T1 sequence (Q96RJ0 whole entry): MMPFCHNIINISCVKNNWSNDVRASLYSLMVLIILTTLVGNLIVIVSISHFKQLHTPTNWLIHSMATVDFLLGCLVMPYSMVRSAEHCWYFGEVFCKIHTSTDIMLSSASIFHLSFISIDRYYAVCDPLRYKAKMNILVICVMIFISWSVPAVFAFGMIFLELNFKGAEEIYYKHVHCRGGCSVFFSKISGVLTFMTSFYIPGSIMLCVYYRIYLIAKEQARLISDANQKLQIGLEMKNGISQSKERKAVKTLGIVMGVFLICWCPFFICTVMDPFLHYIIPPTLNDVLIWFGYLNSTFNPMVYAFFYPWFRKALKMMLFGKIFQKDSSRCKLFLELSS

[8] = Counterscreen for antagonists of the human trace amine associated receptor 1 (hTAAR1): Fluorescence-based cell-based high throughput dose response assay to identify nonselective Ga16 antagonists.; assay type: functional
[9] = molecular target: T1, Trace amine-associated receptor 1; test: Fluorescence-based cell-based high throughput dose response assay to identify antagonists of the human trace amine associated receptor 1 (TAAR1).; assay type: functional
[10] = molecular target: Albumin (Bos taurus, UniProt P02769); test: Counterscreen for inhibitors of T-cell receptor (TCR)-CD3 interaction: Fluorescence-based biochemical high throughput dose response assay to identify inhibitors of T-cell receptor (TCR)-CD3 interaction using a TAMRA-labeled BSA probe.; assay type: functional
[11] = human group III sPLA2 inhibitors, dose response, biochemical, QFRET, IC50 (AID 743457);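 also: green fluorescence rise as the enzyme cleaves BODIPY PC-A2 in liposomes; potency for inhibition of the enzyme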
[12] = molecular target: T2, Hexokinase (Trypanosoma brucei, UniProt Q38C41); test: Confirmation assay for inhibitors of Trypanosoma brucei hexokinase 1-Analogue-first series. [Related pubchem assays (depositor defined):AID1430, AID1632, AID2516, AID2560, AID2579, AID2600, AID449725, AID492951]; assay type: functional
T2 sequence (Q38C41 whole entry): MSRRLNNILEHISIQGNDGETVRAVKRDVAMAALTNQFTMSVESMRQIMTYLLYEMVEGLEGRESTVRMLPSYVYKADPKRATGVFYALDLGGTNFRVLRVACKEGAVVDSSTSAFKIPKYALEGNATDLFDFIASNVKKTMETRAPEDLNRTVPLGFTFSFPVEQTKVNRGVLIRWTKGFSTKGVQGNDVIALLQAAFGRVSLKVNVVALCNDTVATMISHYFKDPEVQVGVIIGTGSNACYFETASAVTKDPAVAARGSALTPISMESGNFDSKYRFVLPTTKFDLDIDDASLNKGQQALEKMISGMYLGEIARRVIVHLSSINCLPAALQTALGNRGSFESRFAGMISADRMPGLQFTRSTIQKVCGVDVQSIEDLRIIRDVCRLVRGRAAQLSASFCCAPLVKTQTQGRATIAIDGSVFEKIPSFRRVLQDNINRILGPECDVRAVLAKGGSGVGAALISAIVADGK

[13] = Counterscreen for activators of the function of SWI/SNF related, matrix associated, actin dependent regulator of chromatin, subfamily a, member 2 (SMARCA2, BRM): Luminescence-based cell-based high throughput dose response assay to identify non-selective compounds using the VP16 reporter assay.; assay type: functional
[14] = molecular target: Glucose-6-phosphate 1-dehydrogenase (Homo sapiens, UniProt P11413); test: human G6PD enzyme inhibitors, dose response, selectivity assay for P. falciparum G6PD inhibitor project, biochemical, fluorescence (AID 504792); assay type: functional
[15] = molecular target: SWI/SNF-related matrix-associated actin-dependent regulator of chromatin subfamily A member 2 (Homo sapiens, UniProt P51531); test: Luminescence-based cell-based high throughput dose response assay to identify activators of the function of SWI/SNF related, matrix associated, actin dependent regulator of chromatin, subfamily a, member 2 (SMARCA2, BRM).; assay type: functional
[16] = inhibitors of clade B AD8 Env fusion, dose response, cell-based, cherry-pick (AID 652062); assay type: functional;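 also: luciferase signal from cell-cell fusion driven by HIV-1 clade B AD8 Env; potency is for inhibitors of fusion seen as a drop in luminescence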
[17] = ZM109 Env clade C HIV-1 fusion inhibitors, dose response, HeLa effector, CEM target cells, luciferase, cherry-pick (AID 652058); assay type: functional, cell-based
[18] = CEM21 lymphoblast cell cytotoxicity, dose response, cytotoxicity control for viral fusion inhibitor project, CellTiter-Glo luminescence, cherry-picked (AID 652042); assay type: functional, cell-based;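 also: potency for signal decrease meaning cytotoxicity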
[19] = off-target signal loss in HeLa-CEM21 co-culture – HeLa F-luc CTL cells, cherry-picked, counter-screen for HIV-1 Env fusion inhibitor project, dose response (AID 652040); assay type: functional, cell-based;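 also: potency for signal decrease marking cytotoxic or nonspecific inhibition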
[20] = inhibitors of HIV Env-driven cell fusion, dose response, cherry-pick (AID 652057); assay type: functional, cell-based
[21] = molecular target: Tyrosyl-DNA phosphodiesterase 2 (Homo sapiens, UniProt O95551); test: human TDP2 enzyme inhibitors, dose response, biochemical, epi absorbance, IC50 (AID 743297)
[22] = molecular target: Nonstructural protein 1 (Influenza A virus, UniProt Q194T2); assay type: functional, Influenza A virus (A/California/07/2009(H1N1))
[23] = molecular target: T3, Mitochondrial peptide methionine sulfoxide reductase (Bos taurus, UniProt P54149); test: Absorbance-based biochemical high throughput dose response assay for activators of Methionine sulfoxide reductase A (MsrA).; assay type: functional
T3 sequence (P54149 whole entry): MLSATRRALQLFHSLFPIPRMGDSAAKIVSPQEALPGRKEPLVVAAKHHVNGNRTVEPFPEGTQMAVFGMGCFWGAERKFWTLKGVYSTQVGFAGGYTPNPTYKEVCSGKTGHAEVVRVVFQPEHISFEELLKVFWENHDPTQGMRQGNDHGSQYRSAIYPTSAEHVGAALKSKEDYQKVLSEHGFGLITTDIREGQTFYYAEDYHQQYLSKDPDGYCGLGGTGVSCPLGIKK

[24] = molecular target: T4, Rac GTPase-activating protein 1 (Homo sapiens, UniProt Q9H0H5); test: MgcRacGAP GTPase-activating activity inhibitors, confirmation, biochemical, ADP Hunter fluorescence, primary and confirmatory (AID 624330); assay type: functional
T4 sequence (Q9H0H5 whole entry): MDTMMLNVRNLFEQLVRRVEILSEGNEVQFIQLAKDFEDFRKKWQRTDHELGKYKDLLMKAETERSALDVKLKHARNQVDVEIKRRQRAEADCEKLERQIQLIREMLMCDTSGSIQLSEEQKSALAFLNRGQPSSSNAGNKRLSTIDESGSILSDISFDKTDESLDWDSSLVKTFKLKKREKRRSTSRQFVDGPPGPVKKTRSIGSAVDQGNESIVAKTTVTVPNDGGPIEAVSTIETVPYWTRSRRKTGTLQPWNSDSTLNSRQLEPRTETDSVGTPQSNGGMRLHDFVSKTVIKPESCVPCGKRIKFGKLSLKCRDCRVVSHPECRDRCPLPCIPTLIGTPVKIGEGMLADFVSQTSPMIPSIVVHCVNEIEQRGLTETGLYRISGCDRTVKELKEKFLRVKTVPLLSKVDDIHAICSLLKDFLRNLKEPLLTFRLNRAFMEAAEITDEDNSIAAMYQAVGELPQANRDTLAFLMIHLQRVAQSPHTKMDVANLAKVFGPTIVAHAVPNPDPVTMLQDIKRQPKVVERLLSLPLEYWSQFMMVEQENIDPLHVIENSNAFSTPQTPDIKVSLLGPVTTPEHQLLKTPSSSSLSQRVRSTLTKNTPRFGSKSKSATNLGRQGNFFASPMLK

[25] = tested on: Vero; test: Vero cell cytotoxicity, cytotoxicity control for flavivirus capping enzyme inhibitors (AID 588742); assay type: functional; settings: Chlorocebus sabaeus
[26] = molecular target: Genome polyprotein (dengue virus type 2, UniProt P29990); test: Dengue-2 NS5 methyltransferase inhibitors, primary screen, biochemical, confirmation dose response (AID 588689); assay type: functional
[27] = molecular target: T5, Caspase-6 (Homo sapiens, UniProt P55212); test: human caspase-6 inhibitors, dose response, biochemical, VEID-R110 fluorescence, cherry-pick (AID 720632)
T5 sequence (P55212 whole entry): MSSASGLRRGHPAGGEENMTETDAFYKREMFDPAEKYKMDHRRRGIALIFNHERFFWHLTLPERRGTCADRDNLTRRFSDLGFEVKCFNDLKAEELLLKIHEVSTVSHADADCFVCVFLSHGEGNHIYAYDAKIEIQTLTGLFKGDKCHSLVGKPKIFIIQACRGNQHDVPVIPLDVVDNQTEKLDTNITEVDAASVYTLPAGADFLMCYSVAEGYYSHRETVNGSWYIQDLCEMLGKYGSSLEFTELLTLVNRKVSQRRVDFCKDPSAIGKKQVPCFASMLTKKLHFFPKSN

[28] = molecular target: T6, Interleukin-8 (Homo sapiens, UniProt P10145); test: Dose Response confirmation of uHTS small molecule hits for cystic fibrosis induced NFkb Inhibitors in a PAF-induced IL8 counterscreen.; assay type: functional; settings: read-out: IC50_Mean
T6 sequence (P10145 whole entry): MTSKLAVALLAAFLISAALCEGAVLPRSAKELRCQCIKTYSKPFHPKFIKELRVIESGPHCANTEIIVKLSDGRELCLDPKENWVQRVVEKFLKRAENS

[29] = molecular target: T6, Interleukin-8; test: Dose Response confirmation of uHTS small molecule hits for cystic fibrosis induced NFkb Inhibitors in a TNFa-induced IL8 counterscreen.; assay type: functional; settings: read-out: IC50_Mean
[30] = molecular target: Paired box protein Pax-8 (Homo sapiens, UniProt Q06710); test: inhibitors of PAX8-driven TPO luciferase reporter, dose response, RMG-I cells, cherry-pick (AID 687027); assay type: functional, cell-based;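 also: luciferase reporter driven by Pax8 target thyroperoxidase promoter measured by SteadyGlo luminescence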
[31] = non-specific cell cytotoxicity, dose response, cytotoxicity control for PAX8 inhibitor project, plate reader, dry powder samples (AID 743021); assay type: functional, cell-based
[32] = HEK293T cytotoxicity, dose response, cytotoxicity control for miR-122 modulator project, cell-based, activator set, cherry-pick (AID 720690); assay type: functional;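 also: HEK293T human cells scored for general mammalian cytotoxicity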
[33] = HEK293T cytotoxicity, dose response, cytotoxicity control for miR-122 modulator project, cell-based, inhibitor set, cherry-pick, set 2 (AID 720697); assay type: functional

Disintegrin and metalloproteinase domain-containing protein 17, sequence (P78536 whole entry, the tested form may be a part): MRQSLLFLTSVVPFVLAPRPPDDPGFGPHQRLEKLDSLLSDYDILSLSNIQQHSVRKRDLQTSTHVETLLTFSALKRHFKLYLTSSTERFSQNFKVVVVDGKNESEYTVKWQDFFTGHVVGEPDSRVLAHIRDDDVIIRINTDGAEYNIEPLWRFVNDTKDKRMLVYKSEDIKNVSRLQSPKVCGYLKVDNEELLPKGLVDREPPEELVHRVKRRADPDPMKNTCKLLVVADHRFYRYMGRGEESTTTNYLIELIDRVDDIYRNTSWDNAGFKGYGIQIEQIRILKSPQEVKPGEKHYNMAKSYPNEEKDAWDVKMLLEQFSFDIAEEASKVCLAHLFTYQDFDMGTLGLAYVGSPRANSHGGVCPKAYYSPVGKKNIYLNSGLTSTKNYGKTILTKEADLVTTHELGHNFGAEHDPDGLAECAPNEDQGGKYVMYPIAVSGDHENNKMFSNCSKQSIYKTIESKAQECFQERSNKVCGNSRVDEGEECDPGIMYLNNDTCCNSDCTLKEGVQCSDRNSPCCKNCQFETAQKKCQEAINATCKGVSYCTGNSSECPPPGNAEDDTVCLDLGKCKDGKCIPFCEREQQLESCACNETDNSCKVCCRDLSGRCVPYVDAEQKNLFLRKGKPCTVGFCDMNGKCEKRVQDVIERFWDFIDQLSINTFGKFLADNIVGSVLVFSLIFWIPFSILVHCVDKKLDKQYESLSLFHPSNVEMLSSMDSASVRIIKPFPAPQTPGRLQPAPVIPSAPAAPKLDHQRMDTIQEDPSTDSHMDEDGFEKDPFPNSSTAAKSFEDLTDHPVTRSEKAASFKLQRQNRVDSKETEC
SWI/SNF-related matrix-associated actin-dependent regulator of chromatin subfamily A member 2, sequence (P51531 whole entry, the tested form may be a part): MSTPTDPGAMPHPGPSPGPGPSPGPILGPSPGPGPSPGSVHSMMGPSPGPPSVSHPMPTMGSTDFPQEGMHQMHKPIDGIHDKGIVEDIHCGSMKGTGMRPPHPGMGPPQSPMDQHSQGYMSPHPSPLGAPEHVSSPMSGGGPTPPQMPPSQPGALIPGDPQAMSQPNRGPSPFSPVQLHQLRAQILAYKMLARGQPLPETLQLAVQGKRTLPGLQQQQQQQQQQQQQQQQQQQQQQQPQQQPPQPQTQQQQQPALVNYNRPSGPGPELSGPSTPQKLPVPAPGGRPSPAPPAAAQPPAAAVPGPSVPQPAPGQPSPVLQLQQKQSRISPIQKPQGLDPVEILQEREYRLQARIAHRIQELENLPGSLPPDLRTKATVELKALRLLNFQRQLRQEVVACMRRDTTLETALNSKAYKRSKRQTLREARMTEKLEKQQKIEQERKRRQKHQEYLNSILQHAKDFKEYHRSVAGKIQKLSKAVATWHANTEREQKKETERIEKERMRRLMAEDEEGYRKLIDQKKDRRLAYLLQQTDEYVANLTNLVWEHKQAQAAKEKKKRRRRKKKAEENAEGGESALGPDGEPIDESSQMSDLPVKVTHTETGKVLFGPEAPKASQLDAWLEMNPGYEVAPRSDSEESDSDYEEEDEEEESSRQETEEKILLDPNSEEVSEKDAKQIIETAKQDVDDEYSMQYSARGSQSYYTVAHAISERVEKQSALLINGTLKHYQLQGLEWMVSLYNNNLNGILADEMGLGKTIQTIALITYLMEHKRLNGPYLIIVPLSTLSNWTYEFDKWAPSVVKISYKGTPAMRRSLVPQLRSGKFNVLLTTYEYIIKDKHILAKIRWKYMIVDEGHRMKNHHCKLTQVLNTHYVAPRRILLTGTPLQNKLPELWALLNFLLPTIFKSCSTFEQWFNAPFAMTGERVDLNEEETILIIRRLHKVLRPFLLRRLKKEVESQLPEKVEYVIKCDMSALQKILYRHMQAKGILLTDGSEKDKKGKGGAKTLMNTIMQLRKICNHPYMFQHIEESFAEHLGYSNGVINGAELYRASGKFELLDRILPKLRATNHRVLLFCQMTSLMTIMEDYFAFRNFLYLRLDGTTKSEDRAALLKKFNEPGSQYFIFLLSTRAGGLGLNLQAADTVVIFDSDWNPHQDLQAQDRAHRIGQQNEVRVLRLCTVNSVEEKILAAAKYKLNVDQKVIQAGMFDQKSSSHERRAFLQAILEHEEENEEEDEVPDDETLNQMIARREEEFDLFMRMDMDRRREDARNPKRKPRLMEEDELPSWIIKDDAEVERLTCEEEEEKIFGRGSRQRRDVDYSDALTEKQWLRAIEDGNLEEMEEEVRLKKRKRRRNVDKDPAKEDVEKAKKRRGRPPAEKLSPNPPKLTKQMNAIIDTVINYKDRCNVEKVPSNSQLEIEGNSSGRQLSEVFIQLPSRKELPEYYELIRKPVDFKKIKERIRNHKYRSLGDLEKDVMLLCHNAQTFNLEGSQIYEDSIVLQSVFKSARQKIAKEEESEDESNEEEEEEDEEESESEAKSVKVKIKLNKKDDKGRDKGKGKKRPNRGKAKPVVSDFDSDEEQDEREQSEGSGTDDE
Albumin, sequence (P02769 whole entry): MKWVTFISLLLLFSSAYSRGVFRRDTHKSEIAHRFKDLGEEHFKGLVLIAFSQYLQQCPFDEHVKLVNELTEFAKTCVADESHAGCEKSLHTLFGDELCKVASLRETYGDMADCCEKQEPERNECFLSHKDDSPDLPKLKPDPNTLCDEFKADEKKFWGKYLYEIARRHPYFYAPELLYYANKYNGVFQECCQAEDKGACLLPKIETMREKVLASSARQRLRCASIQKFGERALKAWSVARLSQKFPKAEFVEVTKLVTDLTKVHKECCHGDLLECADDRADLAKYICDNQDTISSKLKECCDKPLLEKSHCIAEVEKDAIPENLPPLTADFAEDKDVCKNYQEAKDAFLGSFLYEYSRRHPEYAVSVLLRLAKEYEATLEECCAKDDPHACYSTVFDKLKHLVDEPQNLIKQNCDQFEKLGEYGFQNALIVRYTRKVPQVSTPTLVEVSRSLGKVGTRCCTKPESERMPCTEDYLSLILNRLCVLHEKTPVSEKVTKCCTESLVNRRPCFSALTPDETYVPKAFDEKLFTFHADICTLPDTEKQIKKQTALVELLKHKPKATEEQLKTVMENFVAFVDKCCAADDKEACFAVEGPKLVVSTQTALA
Glucose-6-phosphate 1-dehydrogenase, sequence (P11413 whole entry): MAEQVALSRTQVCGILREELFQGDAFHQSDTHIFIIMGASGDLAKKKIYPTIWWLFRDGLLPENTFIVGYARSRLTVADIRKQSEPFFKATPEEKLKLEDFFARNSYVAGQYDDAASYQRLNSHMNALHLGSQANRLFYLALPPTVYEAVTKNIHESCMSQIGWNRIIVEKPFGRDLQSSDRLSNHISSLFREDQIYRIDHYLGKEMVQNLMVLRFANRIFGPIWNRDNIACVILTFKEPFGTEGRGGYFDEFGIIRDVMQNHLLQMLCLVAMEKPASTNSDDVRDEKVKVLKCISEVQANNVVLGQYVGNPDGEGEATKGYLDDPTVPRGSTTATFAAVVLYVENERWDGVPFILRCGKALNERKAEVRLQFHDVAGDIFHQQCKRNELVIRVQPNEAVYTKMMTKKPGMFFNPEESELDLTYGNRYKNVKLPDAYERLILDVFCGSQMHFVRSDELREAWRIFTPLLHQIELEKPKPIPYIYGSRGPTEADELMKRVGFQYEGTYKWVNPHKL
Beta-galactosidase, sequence (Q8VNN2 whole entry): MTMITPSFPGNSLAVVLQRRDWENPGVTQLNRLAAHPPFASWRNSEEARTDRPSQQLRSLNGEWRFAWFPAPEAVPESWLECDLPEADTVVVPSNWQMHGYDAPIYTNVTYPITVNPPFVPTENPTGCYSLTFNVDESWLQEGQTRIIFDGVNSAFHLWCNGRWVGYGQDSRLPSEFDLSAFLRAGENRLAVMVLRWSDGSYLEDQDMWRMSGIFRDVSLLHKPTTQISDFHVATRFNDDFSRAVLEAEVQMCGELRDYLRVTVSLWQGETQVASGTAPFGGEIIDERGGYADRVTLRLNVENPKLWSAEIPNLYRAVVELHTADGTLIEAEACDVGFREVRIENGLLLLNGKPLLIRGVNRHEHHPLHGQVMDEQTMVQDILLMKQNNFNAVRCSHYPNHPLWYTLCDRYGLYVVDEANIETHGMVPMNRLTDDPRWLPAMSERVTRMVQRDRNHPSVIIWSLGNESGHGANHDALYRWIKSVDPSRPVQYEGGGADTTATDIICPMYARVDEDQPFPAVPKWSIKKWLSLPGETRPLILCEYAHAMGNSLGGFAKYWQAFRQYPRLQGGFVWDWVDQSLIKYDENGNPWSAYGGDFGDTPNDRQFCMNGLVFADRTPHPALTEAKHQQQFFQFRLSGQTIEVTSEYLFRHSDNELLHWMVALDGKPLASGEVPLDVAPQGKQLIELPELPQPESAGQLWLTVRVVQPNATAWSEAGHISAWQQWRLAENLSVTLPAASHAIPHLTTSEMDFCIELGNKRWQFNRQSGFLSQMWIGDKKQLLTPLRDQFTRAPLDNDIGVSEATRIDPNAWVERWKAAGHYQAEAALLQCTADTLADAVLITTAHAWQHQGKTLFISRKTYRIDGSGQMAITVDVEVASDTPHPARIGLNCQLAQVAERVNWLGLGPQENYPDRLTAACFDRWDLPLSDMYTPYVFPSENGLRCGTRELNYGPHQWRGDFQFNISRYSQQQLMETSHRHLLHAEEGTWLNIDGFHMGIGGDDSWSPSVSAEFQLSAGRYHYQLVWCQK
Paired box protein Pax-8, sequence (Q06710 whole entry): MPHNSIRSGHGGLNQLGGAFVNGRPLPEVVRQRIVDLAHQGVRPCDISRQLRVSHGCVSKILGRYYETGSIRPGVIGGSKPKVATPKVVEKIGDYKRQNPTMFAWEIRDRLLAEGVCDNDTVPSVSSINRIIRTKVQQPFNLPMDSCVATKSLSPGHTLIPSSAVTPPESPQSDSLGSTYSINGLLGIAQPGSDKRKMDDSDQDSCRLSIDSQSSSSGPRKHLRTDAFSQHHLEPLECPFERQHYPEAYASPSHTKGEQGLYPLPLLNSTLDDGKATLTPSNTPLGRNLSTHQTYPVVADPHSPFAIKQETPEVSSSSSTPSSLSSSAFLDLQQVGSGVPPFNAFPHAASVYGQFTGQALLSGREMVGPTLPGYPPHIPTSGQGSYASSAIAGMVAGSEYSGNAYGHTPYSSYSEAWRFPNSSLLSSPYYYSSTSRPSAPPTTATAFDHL

COc1ccc(OC)c(-c2csc(NC(=O)COC(=O)C3(C)CC3(Cl)Cl)n2)c1 (centres undefined)
IC50 [1]: 13.1 µM (inactive)
IC50 [2]: > 69.5 µM (inactive)

CCOC(=O)C1=C(Nc2ccc(Cl)cc2)S/C(=C\c2ccccn2)C1=O
IC50 [3]: > 80 µM (inactive)

O=C(/C=C/c1ccccc1)N1CCN(CCN2C(=O)c3cccc4cccc(c34)C2=O)CC1
CC50 [4]: 60.2 µM (active)
CC50 [5]: > 100 µM (active)
IC50 [3]: > 80 µM (inactive)

COc1ccc2oc(C(=O)OCC(=O)NCc3ccccc3OC)c(C)c2c1
EC50 [6]: > 29.9 µM (inactive)
EC50 [7]: 7.16 µM (active)
IC50 [8]: > 29.9 µM (inactive)
IC50 [9]: 6.65 µM (active)

O=C(NN=Cc1sc(=O)[nH]c1-[n+]1ccc2ccccc2c1)c1ccccc1[O-]
IC50 [10]: > 94.1 µM (inactive)

NC(=O)CCC1NC(=S)N(Cc2ccccc2)C1=O (centres undefined)
IC50 [10]: > 94.1 µM (inactive)

O=C(NNC(=S)Nc1ccccc1Cl)c1ccccc1Cl
IC50 [11]: > 122 µM (inactive)

Cn1sc2ccccc2c1=O
IC50 [12]: > 25 µM (inactive)
EC50 [13]: > 91.2 µM (inactive)
IC50 [14]: 37.3 µM (inactive)
EC50 [15]: > 91.2 µM (inactive)

OCCCn1c(CCNc2nc(-c3ccc(F)cc3)cs2)nc2cc(C(F)(F)F)ccc21
AC50 [16]: 16 µM (active)
AC50 [17]: 5.8 µM (active)
AC50 [18]: 51.5 µM (active)
AC50 [19]: 43.1 µM (active)
AC50 [20]: 8.76 µM (active)

C[n+]1c(-c2ccccc2)cc2c(=Cc3ccc([N+](=O)[O-])cc3)c3ccccc3n21
IC50 [21]: > 128 µM (inactive)
IC50 [22]: 9.36 µM (active)
EC50 [23]: > 104 µM (inactive)
IC50 [24]: 31.5 µM (active)
CC50 [25]: 34.8 µM (active)
IC50 [14]: > 80 µM (inactive)
IC50 [26]: 14.2 µM (active)
AC50 [27]: 0.309 µM (active)

C=C1C(=O)[C@]23C[C@H]1CCC2[C@@]1(C)C(C[C@@H]3O)[C@](C)(C(=O)O)CC[C@@H]1O (some centres undefined)
IC50 [28]: 0.817 µM (active)
EC50 [13]: > 91.3 µM (inactive)
IC50 [29]: 39.7 µM (inactive)
EC50 [15]: > 10.1 µM (inactive)

Cc1cccc(C(C#N)c2nc3ccccc3nc2C(F)(F)F)c1 (centres undefined)
EC50 [6]: > 29.9 µM (inactive)
EC50 [7]: > 29.9 µM (inactive)
IC50 [8]: > 29.9 µM (inactive)
IC50 [9]: 1.58 µM (active)

Brc1ccc2nc(-c3ccc(CN4CCC(c5nc6ccccc6[nH]5)CC4)cc3)c(-c3ccccc3)nc2c1
AC50 [30]: 9.03 µM (active)
AC50 [31]: 37.8 µM (active)

CN1C(=O)c2cc(NC(=O)c3ccc(C(F)(F)F)cc3)ccc2OC[C@H]2O[C@H](CC(=O)NC3Cc4ccccc4C3)CC[C@@H]21
AC50 [32]: 0.335 µM (active)
AC50 [33]: 0.324 µM (active)

Cc1ccc(OCCOCCOc2ccc(Br)cc2/C=N\NC(=O)c2ccncc2)cc1
IC50 [1]: > 69.5 µM (inactive)
IC50 [2]: > 69.5 µM (inactive)
